In ChEMBL document CHEMBL2375355, “Practical synthesis of a chromene analog for use as a retinoic acid receptor alpha antagonist lead compound” (Eur J Med Chem, 2013):
The source made the active and inactive calls. No cut-off for these calls is given here.

Columns and labels:
Type in all cases: cell-based
[1] = biological target: T1, Retinoic acid receptor alpha (Homo sapiens) (UniProt P10276); experiment: Antagonist activity at RARalpha in human MCF7 cells assessed as inhibition of ATRA-induced luciferase activity at 0.1 to 1 nM after 48 hrs by luciferase reporter gene assay
T1 sequence (whole entry): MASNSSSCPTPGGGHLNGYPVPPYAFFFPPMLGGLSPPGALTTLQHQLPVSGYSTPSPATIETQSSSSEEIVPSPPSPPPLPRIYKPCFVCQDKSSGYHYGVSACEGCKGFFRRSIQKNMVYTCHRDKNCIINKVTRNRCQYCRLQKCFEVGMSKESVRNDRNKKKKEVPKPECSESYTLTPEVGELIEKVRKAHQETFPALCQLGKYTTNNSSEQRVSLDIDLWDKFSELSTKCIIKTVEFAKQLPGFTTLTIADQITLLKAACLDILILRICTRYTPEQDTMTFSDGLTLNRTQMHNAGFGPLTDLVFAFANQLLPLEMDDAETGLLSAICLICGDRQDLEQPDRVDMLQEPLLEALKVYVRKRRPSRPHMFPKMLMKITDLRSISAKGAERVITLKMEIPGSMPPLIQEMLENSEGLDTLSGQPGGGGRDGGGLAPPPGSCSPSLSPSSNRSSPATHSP

[2] = biological target: T1, Retinoic acid receptor alpha (Homo sapiens); experiment: Antagonist activity at RARalpha in human MCF7 cells assessed as inhibition of ATRA-induced luciferase activity at 10 nM after 48 hrs by luciferase reporter gene assay
[3] = biological target: T1, Retinoic acid receptor alpha (Homo sapiens); experiment: Antagonist activity at RARalpha in human MCF7 cells assessed as inhibition of ATRA-induced luciferase activity after 48 hrs by luciferase reporter gene assay

inhibition [1] | inhibition [2] | inhibition [3] | Structure (SMILES)
Active | – | – | Cc1ccc(C2=CC(C)(C)Oc3c(Br)cc(C(=O)Nc4ccc(C(=O)O)c(F)c4)cc32)cc1
– | Active | Dose-dependent effect | Cc1ccc(C2=CC(C)(C)Oc3c(Br)cc(C(=O)Nc4ccc(C(=O)O)cc4)cc32)cc1
